Source: BindingDB's records for patent WO2022104348 (Janssen Pharmaceutica, 2022)

Biological target: Mitogen-activated protein kinase kinase kinase 14 (Homo sapiens, UniProt Q99558)
Assay: Inhibition of auto-phosphorylation of recombinant human NF-kappaB-inducing kinase (NIK/MAP3K14) activity
Method: NIK/MAP3K14 auto-phosphorylation activity was measured using the AlphaScreen (ascreen) format (Perkin Elmer). All compound6 tested were dissolved in dimethyl sulfoxide (DMSO) and further dilutions were made in assay buffer. The final DMSO concentration was 0.7% (v/v) in assays. The assay buffer was 50 mM Tris pH 7.5 containing 1 mM EGTA (ethylene glycol tetraacetic acid), 1 mM DTT (dithiothreitol), 0.1 mM NasVCO4, 5 mM MgCE, and 0.01 % Tween 20. The assays were carried out in 384 well Proxiplates (Perkin Elmer). The incubations consisted of the compound, […] Adenosine-5'-triphosphate (ATP), and 1 nM NIK/MAP3K14. Incubations were initiated by the addition of GST-tagged NIK/MAP3K14 enzyme, carried out for 2 h at 25 °C and terminated by addition of stop buffer containing anti-phospho-IKK Ser176/180 antibody. Protein A Acceptor and Glutathione-Donor bead6 were added before reading using an EnVision Multilabel Plate Reader (Perkin Elmer). The signal obtained in the wells was normalized using high (full enzyme activity, 0.7% DMSO) and low controls (no enzyme activity, 0.7% DMSO, no ATP). IC50 s were determined by fitting a sigmoidal curve to % inhibition of control versus Log compound concentration.

Chain of Mitogen-activated protein kinase kinase kinase 14 (Q99558 whole entry): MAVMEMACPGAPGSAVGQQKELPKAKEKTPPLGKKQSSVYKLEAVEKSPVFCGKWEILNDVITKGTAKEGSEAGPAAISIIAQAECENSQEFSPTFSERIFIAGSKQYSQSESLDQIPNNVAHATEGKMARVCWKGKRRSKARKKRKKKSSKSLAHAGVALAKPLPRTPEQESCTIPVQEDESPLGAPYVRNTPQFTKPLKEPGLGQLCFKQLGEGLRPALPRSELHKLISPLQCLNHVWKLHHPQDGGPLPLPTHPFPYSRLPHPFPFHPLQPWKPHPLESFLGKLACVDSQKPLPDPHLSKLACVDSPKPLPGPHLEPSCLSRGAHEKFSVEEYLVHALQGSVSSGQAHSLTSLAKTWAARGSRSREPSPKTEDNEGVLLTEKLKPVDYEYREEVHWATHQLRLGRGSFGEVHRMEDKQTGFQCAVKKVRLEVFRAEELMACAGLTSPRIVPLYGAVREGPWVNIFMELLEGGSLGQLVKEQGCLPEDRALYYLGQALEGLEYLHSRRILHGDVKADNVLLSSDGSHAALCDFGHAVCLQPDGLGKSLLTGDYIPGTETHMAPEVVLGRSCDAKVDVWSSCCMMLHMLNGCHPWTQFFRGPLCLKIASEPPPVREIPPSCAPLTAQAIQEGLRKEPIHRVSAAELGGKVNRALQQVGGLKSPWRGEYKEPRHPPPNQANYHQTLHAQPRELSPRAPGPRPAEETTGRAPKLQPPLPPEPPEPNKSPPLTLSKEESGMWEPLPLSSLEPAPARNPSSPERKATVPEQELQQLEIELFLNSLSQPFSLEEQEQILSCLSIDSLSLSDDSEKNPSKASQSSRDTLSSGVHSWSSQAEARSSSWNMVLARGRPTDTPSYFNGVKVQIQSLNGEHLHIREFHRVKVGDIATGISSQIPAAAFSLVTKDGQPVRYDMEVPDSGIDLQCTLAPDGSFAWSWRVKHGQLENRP

Compound	IC50 [nM]
Cc1cnc2[nH]cc(-c3nc(-c4cccc([C@]5(O)CCN(C)C5=O)c4)cs3)c2c1 [WO2022104348, Example 7]	< 100
C[C@@](O)(c1cccc(-c2csc(-c3c[nH]c4ncccc34)n2)c1)c1ncc[nH]1 [WO2022104348, Example 80]	> 500
CN1CC[C@@](O)(c2cccc(-c3csc(-c4c[nH]c5ncncc45)n3)c2)C1=O [WO2022104348, Example 53]	< 100
O[C@H]1C[C@](O)(c2cccc(-c3csc(-c4c[nH]c5ncccc45)n3)c2)c2ncccc21 [WO2022104348, Example 102]	> 500
CC1(C)Cc2cccnc2[C@@]1(O)c1cccc(-c2csc(-c3c[nH]c4ncccc34)n2)c1 [WO2022104348, Example 35]	> 500
O[C@@]1(c2cccc(-c3csc(-c4c[nH]c5ncc(C(F)(F)F)cc45)n3)c2)Cc2nccn2C1 [WO2022104348, Example 25]	< 100
C[C@@]1(O)C[C@](O)(c2cccc(-c3csc(-c4c[nH]c5ncccc45)n3)c2)c2ncccc21 [WO2022104348, Example 107]	> 500
O[C@@]1(c2cccc(-c3csc(-c4c[nH]c5ncncc45)n3)c2)CCc2cccnc21 [WO2022104348, Example 5]	< 100
CN1CC[C@@](O)(c2cccc(-n3cnc(-c4c[nH]c5ncccc45)n3)c2)C1=O [WO2022104348, Example 121]	< 100
Cc1ccc([C@]2(O)CCN(C)C2=O)cc1-c1csc(-c2c[nH]c3nccnc23)n1 [WO2022104348, Example 67]	< 100
CN1CC[C@@](O)(c2cccc(-c3cnc(-c4c[nH]c5ncccc45)n3C)c2)C1=O [WO2022104348, Example 120]	> 500
CN1CC[C@@](O)(c2cccc(-c3nc(-c4c(Cl)cnc5[nH]ccc45)cs3)c2)C1=O [WO2022104348, Example 130]	> 500
CN1CC[C@](O)(c2cccc(-c3csc(-c4c[nH]c5ncccc45)n3)c2)C1=O [WO2022104348, Example 39]	> 500
CN1CC[C@@](O)(c2cccc(-c3csc(-c4c[nH]c5ncc(F)c(F)c45)n3)c2)C1=O [WO2022104348, Example 94]	< 100
CN1CC[C@@](O)(c2cccc(-c3nc(-c4cccc5[nH]ncc45)cs3)c2)C1=O [WO2022104348, Example 131]	> 500
C[C@@](O)(c1cccc(-c2csc(-c3c[nH]c4nccnc34)n2)c1)c1ncc[nH]1 [WO2022104348, Example 77]	> 500
O=C1N(CC(F)(F)F)CC[C@]1(O)c1cccc(-c2csc(-c3c[nH]c4nccnc34)n2)c1 [WO2022104348, Example 43]	> 500
CN1C(=O)[C@](O)(c2cccc(-c3csc(-c4c[nH]c5ncccc45)n3)c2)c2ncccc21 [WO2022104348, Example 92]	< 100
